In PubChem BioAssay (NCI):
“And” between values parts separate entries of the source, which are not always exact repeats. Equal values may be shown once.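 Where inhibition never reached the appropriate level, the endpoint shown equals the highest concentration tested. Otherwise, values were interpolated linearly from a five-concentration, 48-hour dose response in 96-well plates. GI50: concentration for 50% inhibition of growth. The concentration for full growth arrest is given as TGI.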

These molecules were tested on MDA-MB-468 breast (assay: inhibition of tumour cell growth, NCI panel, 48 h).
`NS(=O)(=O)c1cccc(-c2ccc3c(NC(=O)C4CC4)n[nH]c3c2)c1` showed a GI50 of 5250 nM and a TGI of over 25000 nM.
For `NC(=O)c1cccc(-c2cc(C(N)=O)ccc2Cl)c1`, the GI50 was 4610 nM and the TGI was over 100000 nM.
`COc1cc(OC)cc(-c2n/c(=C\c3c(O)[nH]c4ccc(Cl)cc34)cc3c2=Nc2ccccc2-3)c1` showed a GI50 of 17900 nM and a TGI of 45600 nM.
For `C=CCn1c(=O)c2cnc(Nc3ccc(N4CCN(C)CC4)cc3)nc2n1-c1cccc(C(C)(C)O)n1`, the GI50 was 144 nM and 317 nM and the TGI was 801 nM and 2080 nM.
For `O=C1/C(=C/c2cccc(Br)c2)COc2ccc(O)c(O)c21`, the GI50 was 1600 nM and the TGI was 3800 nM.
With `CCN(CC)CCC(CNc1c(C)cnc2cc(Cl)ccc12)c1ccc(Cl)cc1` (stereo unspecified) the GI50 was 2050 nM and the TGI was 5450 nM.
`Cc1cc(NC(=O)c2cnc(N3CCN(CCOCCOCCOCCOCCC(=O)N[C@H](C(=O)N4C[C@H](O)C[C@H]4C(=O)N[C@@H](C)c4ccc(-c5scnc5C)cc4)C(C)(C)C)CC3)cn2)c2ncccc2c1` showed a GI50 of 1670 nM and a TGI of 3390 nM.
For `Cn1nnc2c(C(N)=O)ncn2c1=O`, the GI50 was over 100000 nM and the TGI was over 100000 nM.
For `NNc1c2ccccc2nc2ccccc12`, the GI50 was 470 nM and the TGI was 13000 nM.
In the case of `Cc1ccc(Sc2oc(-c3ccc(C)cc3)nc2[P+](c2ccccc2)(c2ccccc2)c2ccccc2)cc1`, the GI50 is reported as 227 nM and the TGI is reported as 705 nM.
Molecule `CCN1C(=O)N(CC)C2C1NN=c1s/c(=C\c3ccc[nH]3)c(=O)n12` (stereo unspecified) has a GI50 of 265 nM and a TGI of over 100000 nM.
For `CC(=O)O.CC(=O)O.CC(=O)O.CC(=O)O.[Rh].[Rh]`, the GI50 was 15000 nM and the TGI was 58100 nM.
With `CCOC(=O)C1=C(C)N2C(=NC3=C(CCC/C3=C\c3ccc(Cl)cc3)C2c2ccc(Cl)cc2)S1` (stereo unspecified) the GI50 was 2360 nM and the TGI was 6190 nM.
With `O=[N+]([O-])c1ccc2c(Nc3ccccc3-c3ccccc3Nc3c4ccccc4nc4cc([N+](=O)[O-])ccc34)c3ccccc3nc2c1` the GI50 was 2250 nM and the TGI was 8600 nM.
Molecule `COc1ccc2c(c1)/C(=C\c1c[nH]c3ccc(OC)cc13)C(=O)N2` has a GI50 of 1780 nM and a TGI of 5660 nM.
Molecule `O=c1c(O)cccn1CCCN(CCCn1cccc(O)c1=O)CCn1cccc(O)c1=O` has a GI50 of 8330 nM and a TGI of 45600 nM.
With `C=C1C(=O)O[C@H]2[C@H]1CC/C(CNC(=O)/C=C/c1ccccc1)=C\CC[C@@]1(C)O[C@@H]21` the GI50 was 480 nM and the TGI was 1690 nM.
Work on `C=C1CC[C@@H]2[C@](C)(COC(C)=O)[C@H](OC(C)=O)CC[C@@]2(C)[C@@H]1CC(Nc1ccc(S(=O)(=O)Nc2nccs2)cc1)C1=CCOC1=O` (stereo partly specified) yielded a GI50 of 1830 nM and a TGI of 4430 nM.
Work on `Brc1cccc(-c2cc(-c3ccc4nccnc4c3)[nH]n2)c1` yielded a GI50 of 900 nM.
In the case of `O=C(Nc1cnc(C(F)(F)F)cn1)c1cc(Cl)ccc1O`, the GI50 is reported as 282 nM and the TGI is reported as 819 nM.
In the case of `O=C1CCC(N2C(=O)c3cccc(NCCCC4CCN(CCNC(=O)c5cc6c(o5)C(=O)c5ccccc5C6=O)CC4)c3C2=O)C(=O)N1` (stereo unspecified), the GI50 is reported as 265 nM and the TGI is reported as 1940 nM.
`Cc1c2ccncc2c(C)c2c1c1cc(CO)ccc1n2C` gave a GI50 of 105 nM and a TGI of 327 nM.
`COc1ccc(Oc2ccccc2NC(=O)CNC(=O)c2cccc3ccccc23)cc1` was tested, and the GI50 was 454 nM and the TGI was over 25000 nM.
Work on `OCc1ccc(N2CCCC2)cc1Cl` yielded a GI50 of 75.7 nM and a TGI of 324 nM.
In the case of `C[C@@H]1COCCN1c1cc(-c2ccnn2C)c2ccnc(-c3ccn[nH]3)c2n1`, the GI50 is reported as 164 nM and 324 nM and the TGI is reported as 854 nM and 3080 nM.
In the case of `O=C1CSC(c2ccccc2O)N1c1nnc(Cn2ccnc2)o1` (stereo unspecified), the GI50 is reported as 3110 nM and the TGI is reported as 13200 nM.
With `Cc1ccc(NC(=O)Nc2nc3ccc([N+](=O)[O-])cc3s2)cc1` the GI50 was 1710 nM and the TGI was 5800 nM.
`COC1=CC(=O)c2c(O)c3c(c(O)c2C1=O)C[C@](C)(O)C[C@@H]3O` gave a GI50 of 2160 nM and a TGI of 7130 nM.
`Cc1cccc2c(Nc3ccc(NS(C)(=O)=O)cc3)c3ccc([N+](=O)[O-])cc3nc12` was tested, and the GI50 was 202 nM and the TGI was 882 nM.
Work on `CC/C=C\C/C=C/C=C1/C(=O)C=C[C@@H]1C/C=C\CCCC(=O)OC` yielded a GI50 of 1790 nM and a TGI of 3830 nM.
Molecule `CCN(CC)CCCC(C)Nc1c(-c2ccccc2)cnc2cc(Cl)ccc12` (stereo unspecified) has a GI50 of 2630 nM and a TGI of 7950 nM.
In the case of `Cn1c2c(c3ccccc31)CCN1C(=O)C3SC21C1C(=O)N(c2ccccc2)C(=O)C31` (stereo unspecified), the GI50 is reported as 51600 nM and the TGI is reported as over 100000 nM.
`Nc1ncccc1-c1nc2ccc(-c3ccccc3)nc2n1-c1ccc(C2(N)CCC2)cc1` showed a GI50 of 117 nM and a TGI of 1990 nM.
`Oc1c(Cl)cc(Cl)c2cccnc12` was tested, and the GI50 was 2100 nM and the TGI was 5530 nM.
Molecule `COc1cccc(C2C(C#N)=C(N)Oc3c2ccc2ccccc32)c1` (stereo unspecified) has a GI50 of 19.4 nM and a TGI of 7040 nM.
`N/C(=N\c1nc2ccccc2s1)NC(=NC1CCCCC1)NC1CCCCC1` showed a GI50 of 1700 nM and a TGI of 3410 nM.
`CN(c1ccc(C#N)c(Cl)c1)C1CCC(NC(=O)c2ccc(N3CCN(C4CN(c5ccc6c(c5)C(=O)N(C5CCC(=O)NC5=O)C6=O)C4)CC3)cc2)CC1` (stereo unspecified) was tested, and the GI50 was 13700 nM and the TGI was 60000 nM.
In the case of `C[C@H]1c2ccccc2CN1CCCOc1cc2c(cc1OCC1CC1)C1(CCCC1)C(N)=N2`, the GI50 is reported as 813 nM and the TGI is reported as 1830 nM.
Molecule `COc1cc(C2CC(=O)Nc3c2cc(Br)c2ccccc32)cc(Br)c1OC` (stereo unspecified) has a GI50 of 529 nM and a TGI of 2540 nM.
`COc1cc(/C=C/[N+](=O)[O-])cc(OC)c1OC` showed a GI50 of 1320 nM and a TGI of 2870 nM.
`COc1ccc(C2C(C#N)=C(/N=C/c3ccc(Cl)cc3)Oc3c2sc2c(C)cccc32)cc1` (stereo unspecified) gave a GI50 of 1090 nM and a TGI of 9340 nM.
`COc1cccc(CC(C)=C(c2ccc(OCCCN(C)C)cc2)c2ccc(OCCCN(C)C)cc2)c1` gave a GI50 of 518 nM and a TGI of 1180 nM.
`Cc1oc2c(c1C(=O)N1CC[C@@H](N)C1)C(=O)c1c(c(O)c3ccccc3c1O)C2=O` gave a GI50 of 2520 nM and a TGI of 11900 nM.
For `CCN(C(=O)CN1CCN(c2cc3c(cc2F)c(=O)c(C(=O)O)cn3CC)CC1)c1nc(-c2ccccc2)cs1`, the GI50 was 307 nM and the TGI was 896 nM.
For `CCN(CC)C(=S)SSC(=S)N(CC)CC`, the GI50 was 15800 nM and 16800 nM and the TGI was 43700 nM and 44800 nM.
With `Nc1n[nH]c2ccc([C@@H]3Nc4cc5[nH]ncc5cc4[C@H]4C5CCC(C5)[C@@H]34)cc12` (stereo partly specified) the GI50 was 211 nM and the TGI was 873 nM.
